The record followed here is patent publication US6936602B1, “Benzazepine derivatives, process for the preparation of the same and uses thereof” (Takeda Chemical Industries, Ltd., priority 1999, dated 2005).

`CCCOCCOc1ccc(-c2ccc3c(c2)C=C(C(=O)Nc2ccc(CN(C)C4CCOCC4)cc2)CCN3c2ccccc2)cc1.Cl` had a melting point of 223 to 224 °C. As to `CCOCCN(C)c1ccc(-c2ccc3c(c2)C=C(C(=O)Nc2ccc(CN(C)C4CCOCC4)cc2)CCN3C=O)cc1` [Compound 4, 7-[4-[N-(2-ethoxyethyl)-N-methylamino]phenyl]-1-formyl-N-[4-[[N-methyl-N-(tetrahydro-2H-pyran-4-yl)amino]methyl]phenyl]-2,3-dihydro-1H-1-benzazepine-4-carboxamide], the melting point lay in the range of 157 to 158 °C.

As to `CCOCCN(CC)c1ccc(-c2ccc3c(c2)C=C(C(=O)Nc2ccc(CN(C)C4CCOCC4)cc2)CCN3C=O)cc1` [Compound 5, 7-[4-[N-(2-ethoxyethyl)-N-ethylamino]phenyl]-1-formyl-N-[4-[[N-methyl-N-(tetrahydro-2H-pyran-4-yl)amino]methyl]phenyl]-2,3-dihydro-1H-1-benzazepine-4-carboxamide], the melting point fell in the range of 162 to 164 °C. Consider `CCCOCCN(CC)c1ccc(-c2ccc3c(c2)C=C(C(=O)Nc2ccc(CN(C)C4CCOCC4)cc2)CCN3C=O)cc1` [Compound 6, 7-[4-[N-ethyl-N-(2-propoxyethyl)amino]phenyl]-1-formyl-N-[4-[[N-methyl-N-(tetrahydro-2H-pyran-4-yl)amino]methyl]phenyl]-2,3-dihydro-1H-1-benzazepine-4-carboxamide], for which the melting point lay within 146 to 149 °C. Regarding `CCOCCCOc1ccc(-c2ccc3c(c2)C=C(C(=O)Nc2ccc(CN(C)C4CCOCC4)cc2)CCN3S(C)(=O)=O)cc1` [Compound 8, 7-[4-(3-ethoxypropoxy)phenyl)-1-methanesulfonyl-N-[4-[[N-methyl-N-(tetrahydro-2H-pyran-4-yl)amino]methyl]phenyl]-2,3-dihydro-1H-1-benzazepine-4-carboxamide], the melting point lay in the range of 157 to 160 °C.

`CCOCCOc1ccc(-c2ccc3c(c2)C=C(C(=O)Nc2ccc(CN(C)C4CCOCC4)cc2)CCN3C)cc1` [Compound 9, 7-[4-(2-ethoxyethoxy)phenyl]-1-methyl-N-[4-[[N-methyl-N-(tetrahydro-2H-pyran-4-yl)amino]methyl]phenyl]-2,3-dihydro-1H-1-benzazepine-4-carboxamide] displayed a melting point of 122 to 125 °C.

Regarding `CCCOCCOc1ccc(-c2ccc3c(c2)C=C(C(=O)Nc2ccc(CN(C)C4CCOCC4)cc2)CCN3C)cc1` [Compound 12, 1-methyl-N-[4-[[N-methyl-N-(tetrahydro-2H-pyran-4-yl)amino]methyl]phenyl]-7-[4-(2-propoxyethoxy)phenyl]-2,3-dihydro-1H-benzazepine-4-carboxamide], the melting point fell in the range of 136 to 138 °C. `CCOCCCOc1ccc(-c2ccc3c(c2)C=C(C(=O)Nc2ccc(CN(C)C4CCOCC4)cc2)CCN3C)cc1` [Compound 13, 7-[4-(3-ethoxypropoxy)phenyl]-1-methyl-N-[4-[[N-methyl-N-(tetrahydro-2H-pyran-4-yl)amino]methyl]phenyl]-2,3-dihydro-1H-1-benzazepine-4-carboxamide] came in with a melting point of 98 to 100 °C.

`CC(C)OCCOc1ccc(-c2ccc3c(c2)C=C(C(=O)N(c2ccc(CN(C)C4CCOCC4)cc2)S(C)(=O)=O)CCN3)cc1` [Compound 15, 1-methylsulfonyl N-[4-[[N-methyl-N-(tetrahydro-2H-pyran-4-yl)amino]methyl]phenyl]-7-[4-(2-propoxy)ethoxyphenyl]-2,3-dihydro-1H-1-benzazepine-4-carboxamide] yielded a melting point of 161 to 162 °C.

As for `CCCCOCCOc1ccc(-c2ccc3c(c2)C=C(C(=O)Nc2ccc(CN(C)C4CCOCC4)cc2)CCN3C)cc1` [Compound 18, 7-[4-(2-butoxyethoxy)phenyl]-1-methyl-N-[4-[[N-methyl-N-(tetrahydro-2H-pyran-4-yl)amino]methyl]phenyl]-2,3-dihydro-1H-1-benzazepine-4-carboxamide], the melting point was 107 to 110 °C. Consider `CCOCCOc1ccc(-c2ccc3c(c2)C=C(C(=O)Nc2ccc(CN(C)C4CCOCC4)cc2)CCN3C=O)cc1Cl` [Compound 21, 7-[3-chloro4-(2-ethoxy)ethoxyphenyl]-1-formyl-N-[4-[[N-methyl-N-(tetrahydro-2H-pyran-4-yl)amino]methyl]phenyl]-2,3-dihydro-1H-1-benzazepine-4-carboxamide], for which the melting point lay within 198 to 200 °C. For the molecule `CN1CCC(C(=O)Nc2ccc(CN(C)C3CCOCC3)cc2)=Cc2cc(-c3ccc4c(c3)OCCO4)ccc21` [Compound 24, 7-(2,3-dihydro-1,4-benzodioxin-6-yl)-1-methyl-N-[4-[[N-methyl-N-(tetrahydro-2H-pyran-4-yl)amino]methyl]phenyl]-2,3-dihydro-1H-1-benzazepine-4-carboxamide], the melting point lay within 164 to 165 °C. As to `CCCN1CCC(C(=O)Nc2ccc(CN(C)C3CCOCC3)cc2)=Cc2cc(-c3ccc(OCCOCC)cc3)ccc21` [Compound 25, 7-[4-(2-ethoxyethoxy)phenyl]-N-[4-[[N-methyl-N-(tetrahydro-2H-pyran-4-yl)amino]methyl]phenyl]-1-propyl-2,3-dihydro-1H-1-benzazepine-4-carboxamide], the melting point was 144 to 147 °C. With `CCCCOCCOc1ccc(-c2ccc3c(c2)C=C(C(=O)Nc2ccc(CN(C)C4CCOCC4)cc2)CCN3)cc1` [Compound 28, 7-[4-(2-butoxyethoxy)phenyl]-N-[4-[[N-methyl-N-(tetrahydro-2H-pyran-4-yl)amino]methyl]phenyl]-2,3-dihydro-1H-1-benzazepine-4-carboxamide], the melting point fell in the range of 119 to 123 °C. The same measure for `CCCOCCOc1ccc(-c2ccc3c(c2)C=C(C(=O)Nc2ccc(CN(C)C4CCOCC4)cc2)CCN3C(=O)CC)cc1` [Compound 29, 1-propionyl-7-[4-(2-propoxyethoxy)phenyl]-N-[4-[[N-methyl-N-(tetrahydro-2H-pyran-4-yl)amino]methyl]phenyl]-2,3-dihydro-1H-1-benzazepine-4-carboxamide]: 167 to 169 °C; for `CCCCOCCOc1ccc(-c2ccc3c(c2)C=C(C(=O)Nc2ccc(CN(C)C4CCOCC4)cc2)CCN3C2CC2)cc1` [Compound 31, 7-[4-(2-butoxyethoxy)phenyl]-1-cyclopropyl-N-[4-[[N-methyl-N-(tetrahydro-2H-pyran-4-yl)amino]methyl]phenyl]-2,3-dihydro-1H-1-benzazepine-4-carboxamide]: 117 to 120 °C; for `CCCCOCCOc1ccc(-c2ccc3c(c2)C=C(C(=O)Nc2ccc(CN(C)C4CCOCC4)cc2)CCN3CC2CCCCC2)cc1` [Compound 34, 7-[4-(2-butoxyethoxy)phenyl]-1-cyclohexylmethyl-N-[4-[[N-methyl-N-(tetrahydro-2H-pyran-4-yl)amino]methyl]phenyl]-2,3-dihydro-1H-1-benzazepine-4-carboxamide]: 115 to 117 °C.

For `CCCCOCCOc1ccc(-c2ccc3c(c2)C=C(C(=O)Nc2ccc(CN(C)C4CCOCC4)cc2)CCN3c2cccc(OC)c2)cc1` [Compound 40, 7-[4-(2-butoxyethoxy)phenyl]-1-(3-methoxyphenyl)-N-(4-[[N-methyl-N-(tetrahydro-2H-pyran-4-yl)amino]methyl]phenyl]-2,3-dihydro-1H-1-benzazepine-4-carboxamide], the melting point lay within 94 to 97 °C. The same measure for `CCCCOCCOc1ccc(-c2ccc3c(c2)C=C(C(=O)Nc2ccc(CN(C)C4CCOCC4)cc2)CCN3c2cnc(C)o2)cc1` [Compound 44, 7-[4-(2-butoxyethoxy)phenyl]-1-(2-methyloxazol-5-yl)-N-[4-[[N-methyl-N-(tetrahydro-2H-pyran-4-yl)amino]methyl]phenyl]-2,3-dihydro-1H-1-benzazepine-4-carboxamide]: 125 to 128 °C; for `CCCCOCCOc1ccc(-c2ccc3c(c2)C=C(C(=O)Nc2ccc(CN(C)C4CCOCC4)cc2)CCN3c2ccc(S(=O)(=O)N(C)C)cc2)cc1` [Compound 47, 7-[4-(2-butoxyethoxy)phenyl]-1-(N,N-dimethyl-4-sulfamoylphenyl)-N-[4-[[N-methyl-N-(tetrahydro-2H-pyran-4-yl)amino]methyl]phenyl]-2,3-dihydro-1H-1-benzazepine-4-carboxamide]: 94 to 98 °C; for `CCCOCCOc1ccc(-c2ccc3c(c2)C=C(C(=O)Nc2ccc(CN(C)C4CCOCC4)cc2)CCN3Cc2ccccc2OC)cc1` [Compound 51, 1-(2-methoxybenzyl)-N-[4-[[N-methyl-N-(tetrahydropyran-4-yl)amino]methyl]phenyl]-7-(4-propoxyethoxyphenyl)-2,3-dihydro-1-benzazepine-4-carboxamide]: 118 to 119 °C. Molecule `CCCCOCCOc1ccc(-c2ccc3c(c2)C=C(C(=O)Nc2ccc(CN(C)C4CCOCC4)cc2)CCN3Cc2ccccc2OC)cc1` [Compound 52, 7-(4-butoxyethoxyphenyl)-1-(2-methoxybenzyl)-N-[4-[[N-methyl-N-(tetrahydropyran-4-yl)amino]methyl]phenyl]-2,3-dihydro-1-benzazepine-4-carboxamide] showed a melting point of 111.5 to 112.5 °C.

Take `CCCOCCOc1ccc(-c2ccc3c(c2)C=C(C(=O)Nc2ccc(CN(C)C4CCOCC4)cc2)CCN3Cc2cccc(OC)c2)cc1` [Compound 53, 1-(3-methoxybenzyl)-N-[4-[[N-methyl-N-(tetrahydropyran-4-yl)amino]methyl]phenyl]-7-(4-propoxyethoxyphenyl)-2,3-dihydro-1-benzazepine-4-carboxamide]: the melting point was 113 to 114 °C. As for `CCCCOCCOc1ccc(-c2ccc3c(c2)C=C(C(=O)Nc2ccc(CN(C)C4CCOCC4)cc2)CCN3Cc2cccc(OC)c2)cc1` [Compound 54, 7-(4-butoxyethoxyphenyl)-1-(3-methoxybenzyl)-N-[4-[[N-methyl-N-(tetrahydropyran-4-yl)amino]methyl]phenyl]-2,3-dihydro-1-benzazepine-4-carboxamide], the melting point was in the range of 107.5 to 108.5 °C. The same measure for `CCCOCCOc1ccc(-c2ccc3c(c2)C=C(C(=O)Nc2ccc(CN(C)C4CCOCC4)cc2)CCN3Cc2ccc(OC)cc2)cc1` [Compound 55, 1-(4-methoxybenzyl)-N-[4-[[N-methyl-N-(tetrahydropyran-4-yl)amino]methyl]phenyl]-7-(4-propoxyethoxyphenyl)-2,3-dihydro-1-benzazepine-4-carboxamide]: 160 to 161 °C.
